Experimental data: BigSolDB 2.1

OCc1cn(Cc2ccccc2)nn1
solubility (mole fraction)
Details | 292.15 K | 295.15 K | 298.15 K | 301.15 K | 304.15 K | 307.15 K | 310.15 K
in ethanol | 0.0566 | 0.0681 | 0.0833 | 0.103 | 0.129 | 0.158 | 0.198
in isopropanol | 0.0322 | 0.039 | 0.047 | 0.0576 | 0.0707 | 0.0889 | 0.112
in methanol | 0.122 | 0.146 | 0.172 | 0.2 | 0.222 | 0.262 | 0.3
in n-butanol | 0.0342 | 0.0408 | 0.0481 | 0.0579 | 0.0695 | 0.0832 | 0.1
in n-propanol | 0.0422 | 0.0502 | 0.0607 | 0.0742 | 0.0909 | 0.113 | 0.141
in water | 0.00147 | 0.0017 | 0.00197 | 0.00237 | 0.0029 | 0.00356 | 0.00433
